Laboratory results: patent US7589104B2, “Tricyclic-bridged piperidinyline derivatives as §-opioid modulators” (Janssen Pharmaceutica NV, priority 2004, dated 2009)

target: T1, delta opioid receptor (Rattus norvegicus, UniProt P33533); assay: Rat Brain Delta Opioid Receptor Binding Assay
T1 construct: from tissue; host or cells: forebrain of male Wistar rats (Charles River)
T1 sequence (P33533 whole entry): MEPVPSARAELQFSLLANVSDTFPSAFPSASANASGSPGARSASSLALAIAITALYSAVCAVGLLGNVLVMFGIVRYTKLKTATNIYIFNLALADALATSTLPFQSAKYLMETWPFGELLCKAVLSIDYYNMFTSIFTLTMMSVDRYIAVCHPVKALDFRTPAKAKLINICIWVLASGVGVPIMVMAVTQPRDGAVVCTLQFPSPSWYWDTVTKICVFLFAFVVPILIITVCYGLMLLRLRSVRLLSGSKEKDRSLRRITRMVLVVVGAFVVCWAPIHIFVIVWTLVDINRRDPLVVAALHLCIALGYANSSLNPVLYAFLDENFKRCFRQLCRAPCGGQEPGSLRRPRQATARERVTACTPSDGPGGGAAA

| SMILES | Ki [nM] |
| --- | --- |
| O=c1[nH]c(-c2ccc3c(c2)Oc2ccccc2C3C2CCNCC2)no1 (stereo not drawn) [Compound 2n, 3-(9-Piperidin-4-yl-9H-xanthen-3-yl)-4H-[1,2,4]oxadiazol-5-one] | 1300 |
| O=C(c1ccc2c(c1)Oc1ccccc1C2C1CC2CCC(C1)N2)N1CCC(O)C1 (stereo not drawn) [Compound 3o, [9-(8-Aza-bicyclo[3.2.1]oct-3-yl)-9H-xanthen-3-yl]-(3-hydroxy-pyrrolidin-1-yl)-methanone] | 1210 |
| CC(=O)Nc1ccccc1-c1ccc2c(c1)Oc1c(O)cccc1C2C1CC2CCC(C1)N2Cc1ccoc1 (stereo not drawn) [Compound 4l, N-{2-[9-(8-Furan-3-ylmethyl-8-aza-bicyclo[3.2.1]oct-3-yl)-5-hydroxy-9H-xanthen-3-yl]-phenyl}-acetamide] | 22.2 |
| CCN(CC)C(=N)c1ccc2c(c1)Oc1ccccc1C2C1CC2CCC(C1)N2 (stereo not drawn) [Compound 4m, 9-(8-Aza-bicyclo[3.2.1]oct-3-yl)-N,N-diethyl-9H-xanthene-3-carboxamidine] | 208 |
| CC(=O)Nc1ccccc1-c1ccc2c(c1)Oc1c(O)cccc1C2C1CC2CCC(C1)N2Cc1cccs1 (stereo not drawn) [Compound 5l, N-{2-[5-Hydroxy-9-(8-thiophen-2-ylmethyl-8-aza-bicyclo[3.2.1]oct-3-yl)-9H-xanthen-3-yl]-phenyl}-acetamide] | 6.51 |
| CCN(CC)C(=N)c1ccc2c(c1)Oc1ccccc1C2C1CC2CCC(C1)N2Cc1ccoc1 (stereo not drawn) [Compound 5m, N,N-Diethyl-9-(8-furan-3-ylmethyl-8-aza-bicyclo[3.2.1]oct-3-yl)-9H-xanthene-3-carboxamidine] | 234 |
| c1ccc2c(c1)Oc1cc(-c3nnn[nH]3)ccc1C2C1CC2CCC(C1)N2Cc1ccoc1 (stereo not drawn) [Compound 6j, 8-Furan-3-ylmethyl-3-[3-(1H-tetrazol-5-yl)-9H-xanthen-9-yl]-8-aza-bicyclo[3.2.1]octane] | 20.6 |
| CC(=O)Nc1ccccc1-c1ccc2c(c1)Oc1c(O)cccc1C2C1CC2CCC(C1)N2Cc1ccccn1 (stereo not drawn) [Compound 6l, N-{2-[5-Hydroxy-9-(8-pyridin-2-ylmethyl-8-aza-bicyclo[3.2.1]oct-3-yl)-9H-xanthen-3-yl]-phenyl}-acetamide] | 49.9 |
| CCN(CC)C(=N)c1ccc2c(c1)Oc1ccccc1C2C1CC2CCC(C1)N2Cc1cccs1 (stereo not drawn) [Compound 6m, N,N-Diethyl-9-(8-thiophen-2-ylmethyl-8-aza-bicyclo[3.2.1]oct-3-yl)-9H-xanthene-3-carboxamidine] | 162 |
| c1csc(CN2C3CCC2CC(C2c4ccccc4Oc4cc(-c5nnn[nH]5)ccc42)C3)c1 (stereo not drawn) [Compound 7j, 3-[3-(1H-Tetrazol-5-yl)-9H-xanthen-9-yl]-8-thiophen-2-ylmethyl-8-aza-bicyclo[3.2.1]octane] | 13.8 |
| CC(=O)Nc1ccccc1-c1ccc2c(c1)Oc1c(O)cccc1C2C1CC2CCC(C1)N2Cc1ccccc1 (stereo not drawn) [Compound 7l, N-{2-[9-(8-Benzyl-8-aza-bicyclo[3.2.1]oct-3-yl)-5-hydroxy-9H-xanthen-3-yl]-phenyl}-acetamide] | 21.8 |
| CCN(CC)C(=N)c1ccc2c(c1)Oc1ccccc1C2C1CC2CCC(C1)N2Cc1ccccn1 (stereo not drawn) [Compound 7m, N,N-Diethyl-9-(8-pyridin-2-ylmethyl-8-aza-bicyclo[3.2.1]oct-3-yl)-9H-xanthene-3-carboxamidine] | 17.3 |
| c1ccc(CN2C3CCC2CC(C2c4ccccc4Oc4cc(-c5nnn[nH]5)ccc42)C3)nc1 (stereo not drawn) [Compound 8j, 8-Pyridin-2-ylmethyl-3-[3-(1H-tetrazol-5-yl)-9H-xanthen-9-yl]-8-aza-bicyclo[3.2.1]octane] | 178 |
| CC(=O)Nc1ccccc1-c1ccc2c(c1)Oc1c(O)cccc1C2C1CC2CCC(C1)N2CCc1ccccc1 (stereo not drawn) [Compound 8l, N-{2-[5-Hydroxy-9-(8-phenethyl-8-aza-bicyclo[3.2.1]oct-3-yl)-9H-xanthen-3-yl]-phenyl}-acetamide] | 26.6 |
| CCN(CC)C(=N)c1ccc2c(c1)Oc1ccccc1C2C1CC2CCC(C1)N2Cc1ccccc1 (stereo not drawn) [Compound 8m, 9-(8-Benzyl-8-aza-bicyclo[3.2.1]oct-3-yl)-N,N-diethyl-9H-xanthene-3-carboxamidine] | 349 |
